According to US11109593B2, “Isoxazolin-5-one derivative and herbicide containing same as active ingredient” (HOKKO CHEMICAL INDUSTRY CO., LTD., priority 2017, dated 2021):

What was measured:
Assay type in all cases: in vivo
Scirpus juncoides [1] = assay: Test Example 1: herbicidal effect test by treatment of rice paddy soil (immediately after seeding)
How it was run: (§1)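 Paddy soil in pots with compound fertilizer, puddled; 30 seeds per species sown at 0–1 cm, flooded ~3 cm, greenhouse. Water-diluted emulsions dropped onto water immediately after seeding at 120 g active ingredient per 10 ares, duplicate. Herbicidal rate (%) from plant dry weight versus untreated, 14 days after treatment.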

[2] = test system: broad leaf weeds (Lindernia pyxidaria and Monochoria vaginalis); assay: as above
How it was run: as §1

Echinochloa crus-galli [3] = assay: as above
How it was run: as §1

Amaranthus viridis [4] = assay: Test Example 4: herbicidal effect test by treatment of leave and stem in dry field farming (seven days after seeding); conditions: 120 g/10a active ingredient; emulsion sprayed seven days after seeding; evaluated 14 days after treatment
How it was run: (§2)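 Twenty seeds per species were mixed into the top 1 cm of alluvial soil in 36 cm^2 pots; emulsions were sprayed seven days after seeding at 100 L per 10 ares (120 g active ingredient per 10 ares). Herbicidal rate (%) = {1 − treated/untreated mean dry weight} × 100, 14 days after treatment, duplicate.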

Chenopodium album [5] = assay: as above; conditions: 120 g/10a active ingredient; emulsion sprayed seven days after seeding; evaluated 14 days after treatment
How it was run: as §2

southern crabgrass [6] = assay: as above; conditions: 120 g/10a active ingredient; emulsion sprayed seven days after seeding; evaluated 14 days after treatment
How it was run: as §2

Echinochloa crus-galli [7] = assay: as above; conditions: 120 g/10a active ingredient; emulsion sprayed seven days after seeding; evaluated 14 days after treatment
How it was run: as §2

Amaranthus viridis [8] = assay: Test Example 3: herbicidal effect test by treatment of dry field farming soil (one day after seeding); conditions: 120 g/10a active ingredient, evaluated 14 days after treatment
How it was run: (§3)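 Dry-field alluvium pots; weed seeds incorporated in top 1 cm; soil spray of diluted emulsion 1 d after seeding, 120 g a.i./10 a in 100 L/10 a. Readout: % reduction of dry weight vs untreated, day 14, duplicates.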

Chenopodium album [9] = assay: as above; conditions: 120 g/10a active ingredient, evaluated 14 days after treatment
How it was run: as §3

southern crabgrass [10] = assay: as above; conditions: 120 g/10a active ingredient, evaluated 14 days after treatment
How it was run: as §3

Echinochloa crus-galli [11] = assay: as above; conditions: 120 g/10a active ingredient, evaluated 14 days after treatment
How it was run: as §3

Scirpus juncoides [12] = assay: Test Example 2: herbicidal effect test by treatment during growing period in paddy rice cultivation (seven days after seeding); conditions: for Herbicidal rate (%) Scirpus juncoides: 120 g/10a active ingredient, assessed 14 days after treatment, dry weight vs untreated area
How it was run: (§4)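 Post-emergence paddy water application: compounds were formulated as emulsions, diluted and dropped into flooded pots seven days after sowing at a rate equivalent to 120 g per 10 ares. Efficacy was taken as dry-weight reduction relative to untreated controls after 14 days.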

[13] = test system: broad leaf weeds (Lindernia pyxidaria and Monochoria vaginalis); assay: as above; conditions: for Herbicidal rate (%) Lindernia pyxidaria / Herbicidal rate (%) Monochoria vaginalis: 120 g/10a active ingredient, assessed 14 days after treatment, dry weight vs untreated area
How it was run: as §4

Echinochloa crus-galli [14] = assay: as above; conditions: for Herbicidal rate (%) Echinochloa crus-galli: 120 g/10a active ingredient, assessed 14 days after treatment, dry weight vs untreated area
How it was run: as §4

[15] = 120 g/10a active ingredient, dry weight vs untreated area, 14 days after treatment
[16] = Lindernia pyxidaria, 120 g/10a active ingredient, dry weight vs untreated area, 14 days after treatment
[17] = Monochoria vaginalis, 120 g/10a active ingredient, dry weight vs untreated area, 14 days after treatment
[18] = 120 g/10a active ingredient, 14 days after treatment, dry weight vs untreated area
[19] = 120 g/10a, rated 14 days after treatment, paddy soil pots

Row | SMILES | Herbicidal rate (%) Scirpus juncoides (Scirpus juncoides [1]; [15]) [%] | Herbicidal rate (%) Lindernia pyxidaria [2, 16] [%] | Herbicidal rate (%) Monochoria vaginalis [2, 17] [%] | Herbicidal rate (%) Echinochloa crus-galli (Echinochloa crus-galli [3]; [15]) [%] | herbicidal effect (herbicidal rate), Amaranthus viridis (Amaranthus viridis [4]) [%] | herbicidal effect (herbicidal rate), Chenopodium album (Chenopodium album [5]) [%] | herbicidal effect (herbicidal rate), southern crabgrass (southern crabgrass [6]) [%] | herbicidal effect (herbicidal rate), Echinochloa crus-galli (Echinochloa crus-galli [7]) [%] | herbicidal rate, Amaranthus viridis (Amaranthus viridis [8]) [%] | herbicidal rate, Chenopodium album (Chenopodium album [9]) [%] | herbicidal rate, southern crabgrass (southern crabgrass [10]) [%] | herbicidal rate, Echinochloa crus-galli (Echinochloa crus-galli [11]) [%] | Herbicidal rate (%) Scirpus juncoides (Scirpus juncoides [12]) [%] | Herbicidal rate (%) Lindernia pyxidaria ([13]; Lindernia pyxidaria) [%] | Herbicidal rate (%) Monochoria vaginalis ([13]; Monochoria vaginalis) [%] | Herbicidal rate (%) Echinochloa crus-galli (Echinochloa crus-galli [14]) [%] | other results
1 | Cc1c(Cc2ccccc2N(S(=O)(=O)C(F)(F)F)S(=O)(=O)C(F)(F)F)c(=O)on1CC(C)(C)C [Compound 1-968] | 90 | 90 | 90 | 90 | 40 | 40 | 90 | 90 | 90 | 90 | 90 | 90 | 90 | 90 | 90 | 90 | –
2 | Cc1ccc(S(=O)(=O)N(c2ccccc2Cc2c(C)n(C(C)C)oc2=O)S(=O)(=O)C(F)(F)F)cc1 [Compound 1-1127] | – | – | – | – | 40 | 40 | 40 | 90 | 40 | 60 | 70 | 90 | – | – | – | – | Herbicidal rate (%) Scirpus juncoides (Scirpus juncoides [1]; [18]): 90%; Herbicidal rate (%) Lindernia pyxidaria ([2]; Lindernia pyxidaria, 120 g/10a active ingredient, 14 days after treatment, dry weight vs untreated area): 100%; Herbicidal rate (%) Monochoria vaginalis ([2]; Monochoria vaginalis, 120 g/10a active ingredient, 14 days after treatment, dry weight vs untreated area): 100%; Herbicidal rate (%) Echinochloa crus-galli (Echinochloa crus-galli [3]; [18]): 100%; herbicidal rate, Scirpus juncoides (Scirpus juncoides [12]; [19]): 90%; herbicidal rate, Lindernia pyxidaria ([13]; Lindernia pyxidaria, 120 g/10a, rated 14 days after treatment, paddy soil pots): 100%; herbicidal rate, Monochoria vaginalis ([13]; Monochoria vaginalis, 120 g/10a, rated 14 days after treatment, paddy soil pots): 100%; herbicidal rate, Echinochloa crus-galli (Echinochloa crus-galli [14]; [19]): 100%
3 | Cc1c(Cc2ccccc2N(S(=O)(=O)C(F)(F)F)S(=O)(=O)C(F)(F)F)c(=O)on1C(C)C1CC1 (stereo not drawn) [Compound 1-992] | 100 | 90 | 100 | 100 | 40 | 40 | 50 | 90 | 40 | 40 | 90 | 90 | 80 | 50 | 90 | 90 | –
4 | CC(=O)N(c1ccccc1Cc1c(C)n(C(C)c2ccccc2)oc1=O)S(=O)(=O)C(F)(F)F (stereo not drawn) [Compound 1-310] | 90 | 90 | 90 | 90 | 40 | 40 | 90 | 90 | 90 | 90 | 90 | 90 | 90 | 90 | 90 | 90 | –
5 | Cc1c(Cc2ccccc2NS(=O)(=O)C(F)(F)F)c(=O)on1Cc1ccc(F)cc1 [Compound 1-183] | 100 | 100 | 100 | 100 | 40 | 50 | 50 | 90 | 50 | 60 | 90 | 90 | 100 | 100 | 100 | 80 | –
6 | CCCCC(c1ccccc1)n1oc(=O)c(Cc2ccccc2NS(=O)(=O)C(F)(F)F)c1C (stereo not drawn) [Compound 1-214] | 90 | 100 | 90 | 100 | 40 | 50 | 50 | 60 | 90 | 90 | 70 | 80 | 80 | 70 | 80 | 90 | –
7 | COCC(C)n1oc(=O)c(Cc2ccccc2N(C(=O)Oc2ccccc2)S(=O)(=O)C(F)(F)F)c1C (stereo not drawn) [Compound 1-765] | 90 | 90 | 90 | 90 | 40 | 40 | 90 | 90 | 90 | 90 | 90 | 90 | 90 | 90 | 90 | 90 | –
8 | CCC(C)CCn1oc(=O)c(Cc2ccccc2NS(=O)(=O)C(F)(F)F)c1C (stereo not drawn) [Compound 1-124] | 90 | 90 | 90 | 100 | 40 | 40 | 60 | 70 | 40 | 50 | 80 | 100 | 80 | 60 | 70 | 90 | –
9 | CCC(C)Cn1oc(=O)c(Cc2ccccc2N(C(=O)OCCOC)S(=O)(=O)C(F)(F)F)c1C (stereo not drawn) [Compound 1-733] | 100 | 90 | 90 | 100 | 60 | 60 | 80 | 90 | 80 | 60 | 100 | 100 | 90 | 70 | 90 | 100 | –
